Legend:
[1] = test system: pellicle and plaque growth on extracted human teeth and plastic strip; test: Inhibition of plaque/pellicle formation on extracted human teeth (mounted on polymethylmethacrylate strip) with composition added to the media (Example 20 procedure); design: species or system human saliva / human teeth; details: for pellicle and plaque formation/inhibition on the teeth: 0.1 ml of 1% by weight in distilled water added to about 200 ml media, second 24 h at about 37° C
Method: A set of three extracted human teeth without the roots is mounted on a polymethylmethacrylate plastic strip of about 1 inch × 3 inches. A drop of human saliva is applied to each tooth and allowed to dry. The set of teeth is then placed in a petri dish and covered with about 200 ml of an aqueous solution of about 2% trypticase and about 4% sucrose. The dish is then inoculated with an additional 1 ml of human saliva and then incubated at about 37° C for about 24 hours.
Next, the set of teeth is removed from the media, rinsed, and then dipped into a 0.5% aqueous solution of FD & C RED No. 3 to visually disclose the plaque.
The teeth are then brushed with water using an electric toothbrush fitted with a soft nylon brush until all of the red disclosed plaque and/or pellicle is removed.
The teeth are then swabbed with human saliva, placed in a petri dish covered with about 200 ml of the trypticase-sucrose media and about 0.1 ml of a composition containing 1% by weight DL-N-carboxymethylmethyl-N,N-dimethyl-N-(3-palmitamidopropyl) ammonium betaine and the remainder being distilled water. The contents of the dish are then inoculated with an additional 1 ml of saliva and incubated for about 24 hours at about 37° C. At the end of the 24 hours, the set of teeth is removed from the media, dried, and dipped into a 0.5% FE & C RED No. 3 solution for about 60 seconds to visually disclose the presence of pellicle and plaque and is then rinsed under tap water.

[2] = Acute oral LD50 study; details: in vivo, rat, palmitic amido betaine purified according to Example 10
Method: An acute oral LD50 study was done on rats for Schercotaine PAB in mature albino rats.
Palmitic amido betaine purified according to Example 10 is also tested according to the above procedure.

[3] = test system: plaque and/or pellicle growth on polymethyl methacrylate strips; test: Inhibition of plaque/pellicle growth on polymethyl methacrylate strips brushed with the composition (Example 16 procedure); design: species or system human saliva; details: second 24 h
[4] = test system: plaque and pellicle formation; test: Observed plaque/pellicle retardation (general statements, test not specified at the place); details: for plaque inhibition activity: various compositions with about 5% betaine, including (isostearic) 24% glycerin, 1% propylene glycol, 0.75% carboxymethyl cellulose, 69.25% water
[5] = test system: plaque and pellicle growth on extracted human teeth; test: Inhibition of plaque/pellicle redeposition on extracted human teeth brushed with the composition, then incubated with saliva (Example 1A procedure)
Method: A set of three extracted human teeth without the roots is mounted on a plastic strip of about 1 inch × 3 inches. The teeth are then swabbed with human saliva using a sterile Dacron swab and allowed to dry for about 15 minutes. The strip is then placed in a petri dish and covered with about 200 ml of an aqueous solution of about 2% trypticase and about 4% sucrose. Each dish is then inoculated with an additional 1 ml of human saliva and then incubated at about 37° C for about 24 hours.
Next, the set of teeth is removed from the media, dried, and then dipped into a 0.5% aqueous solution of FD & C RED No. 3 to visually disclose the plaque. The strip is then rinsed under tap water.
The teeth are then brushed with an electric toothbrush […], […], until all of the red disclosed plaque is removed and are then rinsed.
The teeth are then again swabbed with human saliva, placed in a petri dish covered with the trypticase-sucrose media, which is then inoculated with an additional 1 ml of saliva and incubated for about 24 hours at about 37° C. At the end of the 24 hours, the set of teeth is removed from the media, dried, and dipped into a 0.5% FD & C RED No. 3 solution for about 60 seconds to visually disclose the presence of plaque and is then rinsed under tap water.
All of the above examples employed new sets of teeth or plastic strips and new brushes for the brushing, respectively. Any NaCl present in the composition is due to its presence in the available compositions of the fatty acid amido compounds.

[6] = test system: pellicle and plaque growth on extracted human teeth and plastic strip; test: Inhibition of plaque/pellicle formation on extracted human teeth (mounted on polymethylmethacrylate strip) with composition added to the media (Example 20 procedure); design: species or system human saliva / human teeth; details: 0.1 ml of 1% by weight in propylene glycol; second 24 h

## CCCCCCCC/C=C\CCCCCCCC(=O)NCCC[N+](C)(C)C(C)C(=O)[O-] (racemic) [DL-N-carboxymethylmethyl-N,N-dimethyl-N-(3-oleylamidopropyl) ammonium betaine]
[1]
  pellicle and plaque formation/inhibition on the teeth: inhibits plaque and pellicle formation on the teeth

## CCCCCCCCCCCCCCCC(=O)NCCC[N+](C)(C)CC(=O)[O-] [palmitic amido betaine]
[2]
  LD50: 2400 mg/kg
[3]; Example 17B: Denta Fresh ingredients with Tegobetaine C replaced by 15% palmitic amido betaine
  prevention of plaque and/or pellicle growth: does not prevent plaque and/or pellicle growth
[4]; about 2.5% betaine, about 10% silica, about 56% sorbitol, up to 5% NaCl, water, with rinsing
  retardation of plaque formation: did not retard plaque formation
[4]; about 2.5% or less betaine, about 10% ethyl alcohol, up to about 5% NaCl, water, with rinsing
  retardation of plaque formation: did not retard plaque formation
[4]; about 5% betaine, about 8% silica, about 50.5% sorbitol, about 36.5% water
  retardation of plaque formation: marginally effective in that sometimes the composition exhibited retardation of plaque while other times the composition did not
[4]; about 5% betaine, about 95% water
  retardation of plaque formation: retarded plaque formation
[4]; same compositions (2.5% or less with ethyl alcohol; 2.5% with silica/sorbitol), no rinsing after treatment
  prevention of plaque formation: prevented the formation of plaque
[5]; Example 1A: about 25% palmitic amido betaine, 2-5% NaCl, remainder water (Schercotaine PAB), brushed and rinsed, second 24 h at 37° C
  plaque growth on teeth / inhibition of plaque redeposition: effectively inhibits the redeposition of dental plaque on the teeth
[5]; Example 2: about 20% betaine, 10% ethyl alcohol, 70% water, second 24 h
  pellicle and plaque inhibition: provides pellicle and plaque inhibition although not as great as the preparation employed in Example 1A
[5]; Example 4: about 10% betaine, 8% silica gel (Syloid 244), 36.4% sorbitol, up to 5% NaCl, water, second 24 h
  prevention of pellicle and plaque formation: complete prevention of pellicle and plaque formation on the teeth
[5]; Example 5: about 2.5% betaine, 10% ethyl alcohol, up to 5% NaCl, water, brushed and dipped, not rinsed, second 24 h
  pellicle or plaque formation: no pellicle or plaque formation on the set of teeth
[5]; Example 8: about 10 parts betaine, 35.7 sorbitol, 8 silica QUSO G-30, 1 propylene glycol, 45 water, second 24 h
  pellicle and plaque inhibition: complete pellicle and plaque inhibition on the teeth
[5]; Example 9: about 10 parts betaine, 35.7 sorbitol, 8 silica QUSO G-32, 1 propylene glycol, 45 water, second 24 h
  inhibition of pellicle and plaque growth: complete inhibition of pellicle and plaque growth
[5]; Example 10: about 10% purified betaine, 90% water, 24 h
  inhibition of plaque and pellicle growth: complete inhibition of plaque and pellicle growth on the teeth
[5]; Example 11: about 5% purified betaine, 95% water, 24 h
  inhibition of plaque and pellicle growth: partial inhibition of plaque and pellicle growth on the teeth
[5]; Example 12: about 30 parts betaine in paste with sorbitol, glycerin, carboxymethyl cellulose, Syloid 244, hydrated alumina, pH about 6.4, second 24 h
  inhibition of pellicle and plaque growth: complete inhibition of pellicle and plaque growth on the teeth
[5]; Example 13: about 25 parts purified betaine in paste with sorbitol, carboxymethyl cellulose, hydrated alumina, Syloid 244, glycerin, second 24 h
  plaque and pellicle inhibition: complete plaque and pellicle inhibition on the teeth
[5]; Example 14: about 30 parts purified betaine in paste with Pluronic F-68, sorbitol, carboxymethyl cellulose, hydrated alumina, Syloid 244, second 24 h
  inhibition of plaque and pellicle growth: complete inhibition of plaque and pellicle growth on the teeth

## CCCCCCCCCCCCCCCC(=O)NCCC[N+](C)(C)CCC(=O)[O-] [N-carboxyethyl-N,N-dimethyl-N-(3-palmitamidopropyl) ammonium betaine]
[1]
  pellicle and plaque formation/inhibition on the teeth: complete inhibition of plaque and pellicle formation on the teeth
[1]; 0.1 ml of 1% by weight in distilled water, second 24 h
  plaque and/or pellicle on the plastic strip: very slight plaque and/or pellicle on the plastic strip

## CCCCCCCCCCCCCCCCCC(=O)NCCC[N+](C)(C)C(C)C(=O)[O-] (racemic) [DL-N-carboxymethylmethyl-N,N-dimethyl-N-(3-stearamidopropyl) ammonium betaine]
[1]
  pellicle and plaque formation/inhibition on the teeth: slight activity against plaque and pellicle formation on the teeth

## CCCCCCCCCCCCCCCCCC(=O)NCCC[N+](C)(C)CC(=O)[O-] [stearic amido betaine]
[4]
  plaque inhibition activity: did not exhibit plaque inhibition activity

## CCCCCCCCCCCCCCCC(=O)NCCC[N+](C)(C)C(C)C(=O)[O-] (racemic) [DL-N-carboxymethylmethyl-N,N-dimethyl-N-(3-palmitamidopropyl) ammonium betaine]
[1]
  pellicle and plaque formation/inhibition on the teeth: No pellicle and plaque growth are observed on the teeth

## CCCCCCCCCCCCCCCCCC(=O)NCCC[N+](C)(C)CCC(=O)[O-] [N-carboxyethyl-N,N-dimethyl-N-(3-stearamidopropyl) ammonium betaine]
[1]
  pellicle and plaque formation/inhibition on the teeth: inhibits plaque and pellicle formation on the teeth

## CCCCCCCC/C=C\CCCCCCCC(=O)NCCC[N+](C)(C)CCS(=O)(=O)[O-] [2-[N,N-dimethyl-N-(3-oleylamidopropyl)-amino] ethanesulfobetaine]
[6]
  activity against plaque and pellicle formation on the teeth: exhibits activity against plaque and pellicle formation on the teeth
  plaque growth on teeth and plastic: Very slight plaque growth is observed on teeth and plastic

## isostearic amido betaine
[3]; Example 17C: Denta Fresh ingredients with Tegobetaine C replaced by 15% isostearic amido betaine
  prevention of plaque and/or pellicle growth: does not prevent plaque and/or pellicle growth
[4]; about 5% betaine, similar composition with about 0.75% hydroxyethyl cellulose in place of carboxymethyl cellulose
  plaque inhibition: retarded plaque formation and exhibited moderate plaque inhibition
[4]
  plaque inhibition activity: did not exhibit plaque inhibition activity
[5]; Example 3: about 35% betaine, 2-5% NaCl, remainder water (Schercotaine IAB), second 24 h
  plaque and pellicle inhibition: good plaque and pellicle inhibition
[5]; Example 6: about 5% betaine, 24% glycerin, 0.75% hydroxyethyl cellulose, 1% propylene glycol, up to 5% NaCl, water, second 24 h
  pellicle and plaque inhibition: moderate pellicle and plaque inhibition
[5]; Example 15: about 14% betaine, 86% water, second 24 h
  plaque and pellicle on the teeth: no plaque and pellicle are present on the teeth

## CCCCCCCCCCCCCCCC(=O)NCCC[N+](C)(C)CCS(=O)(=O)[O-] [2-[N,N-dimethyl-N-(3-palmitamidopropyl)-amino] ethanesulfobetaine]
[6]
  activity against plaque and pellicle formation on the teeth: exhibits activity against plaque and pellicle formation on the teeth
  plaque growth on teeth and plastic: Only slight plaque growth is observed on the teeth and plastic

## CCCCCCCC/C=C\CCCCCCCC(=O)NCCC[N+](C)(C)CC(=O)[O-] [oleic amido betaine]
[5]; Example 7: about 25% betaine, up to 5% NaCl, water (Schercotaine OAB), second 24 h
  inhibition of pellicle and plaque growth: almost complete inhibition of pellicle and plaque growth on the teeth

## CCCCCCCC/C=C\CCCCCCCC(=O)NCCC[N+](C)(C)CCC(=O)[O-] [N-carboxyethyl-N,N-dimethyl-N-(3-oleylamidopropyl) ammonium betaine]
[1]
  pellicle and plaque formation/inhibition on the teeth: inhibits plaque and pellicle formation on the teeth
